From article PMC9532399, “The lysosomal transporter TAPL has a dual role as peptide translocator and phosphatidylserine floppase” (Nature Communications, 2022)

Columns and labels:
Assay type in all cases: biochemical, mouse
TAPL E664Q mutant = assay: Dithionite-based flip-flop assay, E664Q proteoliposomes; conditions: for NBD*-PS fluorescence intensity (net percentage transported): E664Q
Procedure: All lipids used in reconstitution were purchased from Avanti Polar Lipids, Inc. (purity > 99%). The in vitro flip–flop assay was performed using NBD* dye-labeled proteoliposomes as described previously. Briefly, E. coli polar lipids and egg PC were mixed in a 1:1 molar ratio, and 0.5% (mol/mol) NBD*-lipid was added. The lipid mixture was then dried under nitrogen gas. The NBD*-lipids used were 18:1-06:0 NBD*-PS (1-oleoyl-2-{6-[(7-nitro-2-1,3-benzoxadiazol-4-yl)amino]hexanoyl}-sn-glycero-3-phosphoserine), 18:1-06:0 NBD*-PC (1-oleoyl-2-{6-[(7-nitro-2-1,3-benzoxadiazol-4-yl)amino]hexanoyl}-sn-glycero-3-phosphocholine), 18:1-06:0 NBD*-PG (1-oleoyl-2-{6-[(7-nitro-2-1,3-benzoxadiazol-4-yl)amino]hexanoyl}-sn-glycero-3-[phospho-rac-(1-glycerol)]), 18:1-06:0 NBD*-PE (1-oleoyl-2-{6-[(7-nitro-2-1,3-benzoxadiazol-4-yl)amino]hexanoyl}-sn-glycero-3-phosphoethanolamine), and 25-NBD*-Cholesterol (25-[N-[(7-nitro-2-1,3-benzoxadiazol-4-yl)methyl]amino]−27-norcholesterol). Thin lipid films were solubilized in 20 mM HEPES–NaOH pH 8.0, 200 mM NaCl and 5% (v/v) glycerol, incubated at RT for 30 min and subjected to 5 freeze–thaw cycles. After extrusion with a Mini-Extruder at 65 °C, final lipid concentrations were determined by phosphorus assays. Briefly, 10 μL of extruded lipid was added to 10 μL of 2% (w/v) ammonium molybdate and 300 μL of concentrated perchloric acid. The mixture was heated at 250 °C for 30 min, then cooled to RT and mixed with 1.5 mL of 0.4% (w/v) ammonium molybdate and 250 μL of 9% (w/v) L-ascorbic acid. It was again heated at 100 °C for 6 min and cooled to RT. Lipid concentrations were calculated from the absorbance at 820 nm using a standard curve prepared with NaH2PO4 solution. After accurately determining the lipid concentration, DM-purified protein and 5 mM lipid suspension (solubilized in 5 mM DM) were mixed 1:25 (w/w). […]
To measure the flip–flop activity, 10 μL of 2 mM NBD*-labeled proteoliposomes were added to 100 μL of reaction buffer (20 mM HEPES–NaOH pH 8.0, 200 mM NaCl, 5 mM ATP and 5% (v/v) glycerol) in the presence of 2 mM MgCl2 (or NaCl), and incubated at 37 °C for 1 h. The mixture was transferred to a 96-well plate and time-dependent fluorescence (λex/λem = 460/538 nm) was recorded every 30 s for 26 min using a fluorescence spectrophotometer (Gemini XPS). After the baseline fluorescence had stabilized, 10 mM sodium dithionite was added to quench the fluorescence of NBD*-lipid present in the outer leaflets of the liposomes. The initial rapid drop and subsequent slow decline in fluorescence intensity were monitored. […] The net percentage of NBD*-lipid translocated across the lipid bilayer was calculated from the following equation[72]: the percentage of protected NBD*-lipid in the inner leaflet = [(FD−F0)/(FT−F0)]×100, and that of accessible NBD*-lipid in the outer leaflet = [(FT−FD)/(FT−F0)]×100, where FT is the total fluorescence of the sample before the addition of dithionite, FD is the fluorescence of the sample after quenching with dithionite, and F0 is any residual fluorescence of the sample after solubilization with Triton X-100. Fluorescence values (FT, FD, F0) were calculated as the averages of 5 points on the respective plateau lines. The ΔTMD0-mediated lipid floppase activity was determined by subtracting the percentage of NBD*-lipid fluorescence measured in the presence of Na^+/ATP from that measured in the presence of Mg^2+/ATP.

TAPL Q298A mutant = assay: Peptide transport assay, Q298A; conditions: 9-mer 10 mM (sic), 3 mM ATP
Procedure: (§1) Proteoliposomes for peptide transport assays were prepared according to the protocol of Zhao et al., with some modifications. Briefly, E. coli polar lipid extract dissolved in chloroform was dried under a gentle stream of nitrogen. The thin film of lipids was placed under a desiccator overnight to completely remove residual chloroform and then hydrated in 1X PBS buffer pH 7.4 (137 mM NaCl, 2.7 mM KCl, 8 mM Na2HPO4, and 2 mM KH2PO4) with 10 mM MgCl2 and 5% (v/v) glycerol. After water bath sonication at 22 °C for 5 min (Powersonic 610, KLEENTEK), the lipid solution was extruded using a Mini-Extruder equipped with a polycarbonate membrane filter (200 nm pore) (Avanti Polar Lipids, Inc.) to obtain unilamellar vesicles, which were destabilized with 0.36% (w/v) DM. The DM-purified protein and lipid suspension were mixed in a 1:50 (w/w) ratio. After incubation at 4 °C for 2 h, the mixture was treated with Bio-Beads SM-2 resin (60 and 120 mg, see above) at 4 °C for a total of 18 h to remove detergent. The proteoliposomes were collected by centrifugation at 200,000×g for 1.5 h at 4 °C and resuspended in the buffer described above.
(§2) The peptide transport activity of ΔTMD0 was measured as described previously. Briefly, 50 μL of ΔTMD0-loaded proteoliposomes (~0.6 μg protein) were added into 200 μL reaction buffer containing 1X PBS pH 7.4, 3 mM ATP, and 10 mM MgCl2 in the presence or absence of 10 μM 5-IAF-labeled peptides. To investigate transport activity, the mixture was incubated at 37 °C for 10 min. The reaction was terminated by incubating the mixture for 20 min on ice. Proteoliposomes were collected by centrifugation at 200,000×g for 30 min and then washed twice with 1X PBS. The proteoliposomes were completely disrupted by adding 10% (w/v) SDS solution (final concentration, 2%). The transported peptide was measured using a microplate reader (Gemini XPS) with excitation at 485 nm and emission at 520 nm.

TAPL N301A mutant = assay: Peptide transport assay, N301A; conditions: 9-mer 10 mM (sic), 3 mM ATP
Procedure: as §1, §2

| Compound | NBD*-PS fluorescence intensity (net percentage transported) (TAPL E664Q mutant; Mg2+/ATP minus Na+/ATP, no peptide, no POPS, mean n=3) | NBD*-PS fluorescence intensity (net percentage transported) (TAPL E664Q mutant; replicate I) | NBD*-PS fluorescence intensity (net percentage transported) (TAPL E664Q mutant; replicate II) | NBD*-PS fluorescence intensity (net percentage transported) (TAPL E664Q mutant; replicate III) | movement of NBD*-PS to the inner leaflet (TAPL E664Q mutant; catalytically inactive E664Q mutant) | Transport activity (TAPL Q298A mutant; replicate I) | Transport activity (TAPL Q298A mutant; replicate II) | Transport activity (TAPL Q298A mutant; replicate III) | Transport activity (TAPL Q298A mutant; wild-type = 100%, mean n=3) | Transport activity (TAPL N301A mutant; replicate I) | Transport activity (TAPL N301A mutant; replicate II) | Transport activity (TAPL N301A mutant; replicate III) | Transport activity (TAPL N301A mutant; wild-type = 100%, mean n=3) |
| --- | --- | --- | --- | --- | --- | --- | --- | --- | --- | --- | --- | --- | --- |
| CCCCCCCC/C=C\CCCCCCCC(=O)OC[C@H](COP(=O)(O)OC[C@H](N)C(=O)O)OC(=O)CCCCCNc1ccc([N+](=O)[O-])c2nonc12 [NBD*-PS, 1-oleoyl-2-{6-[(7-nitro-2-1,3-benzoxadiazol-4-yl)amino]hexanoyl}-sn-glycero-3-phosphoserine] | 1.892% | 1.638% | 1.974% | 2.062% | ~ 1.9% |  |  |  |  |  |  |  |  |
| RRYQNSTC^5-IAFL [9-mer, 5-IAF-labeled peptide of 9 residues (RRYQNSTC^5-IAFL)] |  |  |  |  |  | 88.0035% | 84.2917% | 85.5798% | 85.9583% | 112.671% | 153.066% | 131.453% | 132.396% |
